SMILES strings stand for the structures. pIC50: −log10 of the molar value. Where only a bound is given, the exact number is not on record here.

For 2 molecules, IC50 results are on record in ChEMBL document CHEMBL1133295, “Towards enzyme activated antiprostatic agents” (Bioorg Med Chem Lett, 2000).

What all share (format): functional, cell-based
Settings in all cases: Homo sapiens

In test [1] the test system is HEK293. Kind of test: The compound was evaluated for cytotoxicity by assessing 3H thymidine uptake in HEK293 cell line.
The test system of a further test is MCF7. Put plainly: The compound was evaluated for cytotoxicity by assessing 3H thymidine uptake in MCF-7 cell line.
Test [2] concerns LNCaP. Kind of test: The compound was evaluated for cytotoxicity by assessing 3H thymidine uptake in LNCaP cell line.
In test [3] the test system is HEK293. Kind of test: The compound was evaluated for cytotoxicity by assessing 3H thymidine uptake in HEK293 cell line in presence of PSA (1 ug).
Test [4] has as its system LNCaP. Kind of test: The compound was evaluated for cytotoxicity by assessing 3H thymidine uptake in LNCaP cell line in presence of PSA (1 ug).

Broadly, the pIC50 is the IC50 on a negative log10 scale, so that one unit is a factor of ten. With `CC(C)(C)OC(=O)N[C@@H](Cc1ccc(O)cc1)C(=O)Nc1ccc(COC(=O)N(CCO)CCO)cc1`, the results for the negative logarithm of the IC50 (pIC50) in the test with HEK293 [1], in the test on MCF7 and in the test with LNCaP [2] were under 3.22, under 3.05 and under 3.30, respectively.

On to `N[C@@H](Cc1ccc(O)cc1)C(=O)Nc1ccc(COC(=O)N(CCCl)CCCl)cc1`, for which the negative-log IC50 (pIC50) was 3.75 with HEK293 [1]; 3.76 in the test on HEK293 [3]; under 3.05 with MCF7; 4.48 in the test on LNCaP [2]; 4.47 with LNCaP [4].
